Tested on: Symptomatic Acute Lung Injury Associated with COVID-19
Test: Phase 2 study Part 1, inhaled compound 1 in hospitalized COVID-19 patients
Settings: for # Subjects Respiratory Failure-Free / # Subjects Alive: number of subjects; for IFN-γ, within-group percent difference in geometric mean from baseline / IL-6, within-group percent difference in geometric mean from baseline / IL-8, within-group percent difference in geometric mean from baseline / IL-10, within-group percent difference in geometric mean from baseline / IP-10, within-group percent difference in geometric mean from baseline / MCP-1, within-group percent difference in geometric mean from baseline / MDC, within-group percent difference in geometric mean from baseline / RAGE, within-group percent difference in geometric mean from baseline / TARC, within-group percent difference in geometric mean from baseline / hsCRP, within-group percent difference in geometric mean from baseline: matched D1 and D7 samples; for Time to Hospital Discharge (Days) Mean ± SD: still hospitalized or died = 28 days; for # Subjects Alive, percent / Died (All-Cause Mortality), number / # Subjects Alive: through Day 28
[1] = COVID-19 patients, 3 mg, Day 28
[2] = COVID-19 patients, 10 mg, Day 7
[3] = COVID-19 patients, 10 mg, Day 14
[4] = COVID-19 patients, 10 mg, Day 21
[5] = COVID-19 patients, 10 mg, Day 28
[6] = mostly in the 3 mg and 10 mg doses

`CCc1cc(O)ccc1-c1ccc2c(-c3nc4c([nH]3)CN(C(C)C)[C@H](C(=O)N3CC(N(C)C)C3)C4)n[nH]c2c1` [Compound 1, (S)-(3-(dimethylamino)azetidin-1-yl)(2-(6-(2-ethyl-4-hydroxyphenyl)-1H-indazol-3-yl)-5-isopropyl-4,5,6,7-tetrahydro-3H-imidazo[4,5-c]pyridin-6-yl)methanone] was tested, and the “# Subjects Respiratory Failure-Free, percent” value [1] was 85.7%, the “Hospital Discharge, number” value [1] was 7 and the “Hospital Discharge, percent” value [1] was 100%. For the same compound, the “Proportion of Subjects Alive and Respiratory Failure-free” value [1] was 85.7%, the “Proportion of Subjects Alive and Respiratory Failure-free, number” value [1] was 6 and the “# Subjects Respiratory Failure-Free” value [1] was 6. The “IFN-γ, within-group percent difference in geometric mean from baseline” value (COVID-19 patients, 3 mg) was −90.42%, the “IL-6, within-group percent difference in geometric mean from baseline” value (COVID-19 patients, 3 mg) was −80.24% and the “IL-8, within-group percent difference in geometric mean from baseline” value (COVID-19 patients, 3 mg) was −48.02%. The “IL-10, within-group percent difference in geometric mean from baseline” value (COVID-19 patients, 3 mg) was −70.10%, the “IP-10, within-group percent difference in geometric mean from baseline” value (COVID-19 patients, 3 mg) was −81.44% and the “MCP-1, within-group percent difference in geometric mean from baseline” value (COVID-19 patients, 3 mg) was −54.15%. The “MDC, within-group percent difference in geometric mean from baseline” value (COVID-19 patients, 3 mg) was −23.84%, the “RAGE, within-group percent difference in geometric mean from baseline” value (COVID-19 patients, 3 mg) was −82.95% and the “TARC, within-group percent difference in geometric mean from baseline” value (COVID-19 patients, 3 mg) was −34.57%. The “hsCRP, within-group percent difference in geometric mean from baseline” value (COVID-19 patients, 3 mg) was −74.95%, the “Time to Hospital Discharge (Days) Mean ± SD” value (COVID-19 patients, 3 mg) was 15.29 ± 6.651 days and the “# Subjects Alive, percent” value (COVID-19 patients, 3 mg) was 100.0%. The “Died (All-Cause Mortality), number” value (COVID-19 patients, 3 mg) was 0, the “# Subjects Alive” value (COVID-19 patients, 3 mg) was 7 and the “Clinical Status at Day 28: 1-Not hospitalized, no limitations on activities, number” value (COVID-19 patients, 10 mg) was 5. The “Clinical Status at Day 28: 1-Not hospitalized, no limitations on activities, percent” value (COVID-19 patients, 10 mg) was 83.3%, the “Clinical Status at Day 28: 2-Not hospitalized, but with limitations on activities and/or requiring home oxygen, number” value (COVID-19 patients, 10 mg) was 1 and the “Clinical Status at Day 28: 2-Not hospitalized, but with limitations on activities and/or requiring home oxygen, percent” value (COVID-19 patients, 10 mg) was 16.7%. The “Clinical Status at Day 28: 3-Hospitalized, not requiring supplemental oxygen, and no longer requiring ongoing medical care, number” value (COVID-19 patients, 10 mg) was 0, the “Clinical Status at Day 28: 4-Hospitalized, not requiring supplemental oxygen, but requiring ongoing medical care, number” value (COVID-19 patients, 10 mg) was 0 and the “Clinical Status at Day 28: 5-Hospitalized, requiring supplemental oxygen, number” value (COVID-19 patients, 10 mg) was 0. The “Clinical Status at Day 28: 6-Hospitalized, on non-invasive ventilation or high-flow oxygen devices, number” value (COVID-19 patients, 10 mg) was 0, the “Clinical Status at Day 28: 7-Hospitalized, on invasive mechanical ventilation or extracorporeal membrane oxygenation, number” value (COVID-19 patients, 10 mg) was 0 and the “Clinical Status at Day 28: 8-Death, number” value (COVID-19 patients, 10 mg) was 0. For the same compound, the “Still in Hospital at Day 28, number” value (COVID-19 patients, 10 mg) was 0, the “Time to Hospital Discharge (Days) Median” value (COVID-19 patients, 10 mg) was 16.50 days and the “Modified Borg Dyspnea Score, Baseline, Mean” value (COVID-19 patients, 10 mg group, baseline value) was 6.00. For the same compound, the “Modified Borg Dyspnea Score Change from Baseline, Mean” value (from here on “Modified Borg Dyspnea Score Change”) (COVID-19 patients, 10 mg, Day 2) was −0.33, the “Modified Borg Dyspnea Score Change” value (COVID-19 patients, 10 mg, Day 3) was −1.17 and the “Modified Borg Dyspnea Score Change” value (COVID-19 patients, 10 mg, Day 4) was −1.50. For the same compound, the “Modified Borg Dyspnea Score Change” value (COVID-19 patients, 10 mg, Day 5) was −1.17, the “Modified Borg Dyspnea Score Change” value (COVID-19 patients, 10 mg, Day 6) was −1.33 and the “Hospital Discharge, number” value [2] was 0. The “Modified Borg Dyspnea Score Change” value [2] was −1.67, the “Hospital Discharge, number” value [3] was 2 and the “Hospital Discharge, percent” value [3] was 33.3%. The “Hospital Discharge, number” value [4] was 6, the “Hospital Discharge, percent” value [4] was 100% and the “# Subjects Respiratory Failure-Free, percent” value [5] was 100.0%. The “Hospital Discharge, number” value [5] was 6, the “Hospital Discharge, percent” value [5] was 100% and the “Proportion of Subjects Alive and Respiratory Failure-free” value [5] was 100.0%. For the same compound, the “Proportion of Subjects Alive and Respiratory Failure-free, number” value [5] was 6, the “# Subjects Respiratory Failure-Free” value [5] was 6 and the “IFN-γ, within-group percent difference in geometric mean from baseline” value (COVID-19 patients, 10 mg) was −78.59%. The “IL-6, within-group percent difference in geometric mean from baseline” value (COVID-19 patients, 10 mg) was −58.84%, the “IL-8, within-group percent difference in geometric mean from baseline” value (COVID-19 patients, 10 mg) was −25.87% and the “IL-10, within-group percent difference in geometric mean from baseline” value (COVID-19 patients, 10 mg) was −40.57%. For the same compound, the “IP-10, within-group percent difference in geometric mean from baseline” value (COVID-19 patients, 10 mg) was −79.32%, the “MCP-1, within-group percent difference in geometric mean from baseline” value (COVID-19 patients, 10 mg) was −21.15% and the “MDC, within-group percent difference in geometric mean from baseline” value (COVID-19 patients, 10 mg) was −6.70%. For the same compound, the “RAGE, within-group percent difference in geometric mean from baseline” value (COVID-19 patients, 10 mg) was −54.44%, the “TARC, within-group percent difference in geometric mean from baseline” value (COVID-19 patients, 10 mg) was −21.21% and the “hsCRP, within-group percent difference in geometric mean from baseline” value (COVID-19 patients, 10 mg) was −52.13%. For the same compound, the “Time to Hospital Discharge (Days) Mean ± SD” value (COVID-19 patients, 10 mg) was 15.17 ± 4.446 days, the “# Subjects Alive, percent” value (COVID-19 patients, 10 mg) was 100.0% and the “Died (All-Cause Mortality), number” value (COVID-19 patients, 10 mg) was 0. For the same compound, the “# Subjects Alive” value (COVID-19 patients, 10 mg) was 6, the tolerability (COVID-19 patients, single daily dose of 1 mg, 3 mg, and 10 mg for up to 7 days) was “generally well tolerated” and the “% subjects alive/reduced mortality, compared to Placebo” value (all compound 1 groups) was “positive trend”. For the same compound, the “% subjects respiratory-failure free at Day 28, compared to Placebo” value (all compound 1 groups) was “positive trend”, the “clinical improvement, 8-point Clinical Status Scale from Day 1 to Day 28, compared to Placebo” value (all compound 1 groups) was “positive trend” and the “earlier time to hospital discharge, compared to Placebo” value (all compound 1 groups) was “positive trend”. For the same compound, the “improvement in Modified Borg Dyspnea Score in mean change from baseline at Day 7, compared to Placebo” value (all compound 1 groups) was “positive trend”, the “reduction in alveolar epithelial cell injury marker RAGE” value [6] was “positive trend” and the “reduction of inflammation markers including hsCRP, IFN-g, IL-6, IP-10” value [6] was “positive trend”.

— patent US20210346357A1 (priority 2020, published 2021)
